Assay [1] has as its system r(CGGx6); GGx6 (RNA, repeat) GGAGAGGGUUUAAUCGGCGGCGGCGGCGGCGGUACGAAAGUACGGCGGCGGCGGCGGCGGAUUGGAUCCGCAAGG
The assay is described as follows: ITC, two-mode fit. Conditions: K+ (10 mM potassium phosphate); 298 K; highest-affinity site.

For assay [2] the test system is unchanged. Description: CD melting, 267 nm. Conditions: K+ (50 mM KCl, 10 mM potassium phosphate); 10 µM RNA; drug/nucleic acid ratio up to 2.0; 1 °C/min; per base.
The test system of assay [3] is r(CGGx1); GGx1; (5'CGG/3'GCC) x 1 in Table S1 (RNA, mismatch bulge abasic) GGAGAGGGUUUAAUCGGUACGAAAGUACGGAUUGGAUCCGCAAGG
The assay is described as follows: CD melting, 267 nm. The conditions noted are these: K+ (50 mM KCl, 10 mM potassium phosphate); 10 µM RNA; drug/nucleic acid ratio up to 2.0; 1 °C/min; per base.

In assay [4] the test system is r(CGGx6); GGx6 (RNA, repeat) GGAGAGGGUUUAAUCGGCGGCGGCGGCGGCGGUACGAAAGUACGGCGGCGGCGGCGGCGGAUUGGAUCCGCAAGG
Description: fluorescence titration (curcumin fluorescence), two-mode fit. The conditions noted are these: 50 mM KCl (general buffer); 10 mM phosphate, pH 7.0, 25 °C; stronger of two sites.

In assay [5] the test system is r(CGGx1); GGx1; (5'CGG/3'GCC) x 1 in Table S1 (RNA, mismatch bulge abasic) GGAGAGGGUUUAAUCGGUACGAAAGUACGGAUUGGAUCCGCAAGG
Described as above. Conditions: 50 mM KCl (general buffer); 10 mM phosphate, pH 7.0, 25 °C; stronger of two sites.

For orientation: ΔTm means the shift of the melting midpoint relative to a reference. Take `COc1cc(/C=C/C(=O)CC(=O)/C=C/c2ccc(O)c(OC)c2)ccc1O`: the Ka in assay [1] is on record as 1.7 × 10^6 M^–1. Besides, the shift in melting temperature (ΔTm) came to 3.48 °C in assay [2] and 1.49 °C in assay [3]. In addition, the Kd1 in assay [4] turned out to be 0.092 ± 0.004 µM; in assay [5], 0.12 ± 0.02 µM.

(Values after PMC7155420 (2020).)
